Experimental data from patent US20230212116A1, “SARS-COV-2 MAIN PROTEASE INHIBITORS” (TEXAS A&M UNIVERSITY SYSTEM, priority 2020, published 2023).
Read-outs that look alike come from different tables or passages of the source.

How the values were obtained:
[1] = tested on: SARS-CoV-2; format: cell-based
[2] = tested on: SARS-CoV-2; assay: microbe, parasite or virus in culture; format: cell-based
[3] = tested on: SARS-CoV-2; format: cell-based; details: A549/ACE2 cells; tested 80 nM to 10 μM
[4] = target: T1, SARS-CoV-2 M^Pro (Severe acute respiratory syndrome coronavirus 2, UniProt P0DTD1); format: cell-based
[5] = target: T1, SARS-CoV-2 M^Pro; assay: biochemical; format: biochemical; details: read-out: Enzymatic IC50
[6] = Vero E6 cells, tested 80 nM to 10 μM, two repeats
[7] = Severe acute respiratory syndrome coronavirus 2, Vero C1008, Vero E6 cells, plaque reduction, read-out: antiviral EC50

SMILES: CC(C)C[C@H](NC(=O)OCc1ccccc1)C(=O)N[C@@H](CC1CCNC1=O)C(O)S(=O)(=O)O (stereo partly drawn) [GC376, (2S)-2-((S)-2-(((benzyloxy)carbonyl)amino)-4-methylpentanamido)-1-hydroxy-3-(2-oxopyrrolidin-3-yl)propane-1-sulfonic acid, reference compound]
- concentration of complete abolition of SARS-CoV-2-induced CPE [1, 6]: 10 µM

SMILES: CC(C)C[C@H](NC(=O)[C@@H](NC(=O)OCc1ccccc1)C(C)C)C(=O)N[C@H](C=O)C[C@@H]1CCNC1=O [MPI3, benzyl ((S)-3-methyl-1-(((S)-4-methyl-1-oxo-1-(((S)-1-oxo-3-((S)-2-oxopyrrolidin-3-yl)propan-2-yl)amino)pentan-2-yl)amino)-1-oxobutan-2-yl)carbamate]
- concentration of complete abolition of SARS-CoV-2-induced CPE [1]: not able to completely prevent CPE at all tested concentrations

SMILES: CC(C)[C@H](NC(=O)OCc1ccccc1)C(=O)N[C@@H](CC1CCCCC1)C(=O)N[C@H](C=O)C[C@@H]1CCNC1=O [MPI5, benzyl ((S)-1-(((S)-3-cyclohexyl-1-oxo-1-(((S)-1-oxo-3-((S)-2-oxopyrrolidin-3-yl)propan-2-yl)amino)propan-2-yl)amino)-3-methyl-1-oxobutan-2-yl)carbamate]
- concentration of complete abolition of SARS-CoV-2-induced CPE [1, 6]: 5 µM
- EC50 [2, 7]: 73 nM

SMILES: CC(C)C[C@H](NC(=O)[C@@H](NC(=O)OCc1ccccc1)[C@@H](C)OC(C)(C)C)C(=O)N[C@H](C=O)C[C@@H]1CCNC1=O [MPI6, benzyl ((2S,3R)-3-(tert-butoxy)-1-(((S)-4-methyl-1-oxo-1-(((S)-1-oxo-3-((S)-2-oxopyrrolidin-3-yl)propan-2-yl)amino)pentan-2-yl)amino)-1-oxobutan-2-yl)carbamate]
- EC50 ([2]; Severe acute respiratory syndrome coronavirus 2, Vero C1008, read-out: antiviral EC50, Vero E6 cells, plaque reduction): 209 nM

SMILES: C[C@@H](OC(C)(C)C)[C@H](NC(=O)OCc1ccccc1)C(=O)N[C@@H](Cc1ccccc1)C(=O)N[C@H](C=O)C[C@@H]1CCNC1=O [MPI7, benzyl ((2S,3R)-3-(tert-butoxy)-1-oxo-1-(((S)-1-oxo-1-(((S)-1-oxo-3-((S)-2-oxopyrrolidin-3-yl)propan-2-yl)amino)-3-phenylpropan-2-yl)amino)butan-2-yl)carbamate]
- concentration of complete abolition of SARS-CoV-2-induced CPE [1, 6]: 2.5 to 5 µM
- concentration of complete abolition of SARS-CoV-2-induced CPE [3]: not able to completely abolish CPE at all tested conditions
- EC50 [2, 7]: 170 nM

SMILES: C[C@@H](OC(C)(C)C)[C@H](NC(=O)OCc1ccccc1)C(=O)N[C@@H](CC1CCCCC1)C(=O)N[C@H](C=O)C[C@@H]1CCNC1=O [MPI8, benzyl ((2S,3R)-3-(tert-butoxy)-1-(((S)-3-cyclohexyl-1-oxo-1-(((S)-1-oxo-3-((S)-2-oxopyrrolidin-3-yl)propan-2-yl)amino)propan-2-yl)amino)-1-oxobutan-2-yl)carbamate]
- suppression of M^Pro-eGFP toxicity / promotion of cell survival and M^Pro-eGFP expression [4]: effectively suppressed

SMILES: O=C[C@H](C[C@@H]1CCNC1=O)NC(=O)[C@H](CC1CCCCC1)NC(=O)c1cc2ccccc2[nH]1 [MPI10, N-((S)-3-cyclohexyl-1-oxo-1-(((S)-1-oxo-3-((S)-2-oxopyrrolidin-3-yl)propan-2-yl)amino)propan-2-yl)-1H-indole-2-carboxamide, reference compound]
- concentration of complete abolition of SARS-CoV-2-induced CPE [1, 6]: 10 µM
- concentration of complete abolition of SARS-CoV-2-induced CPE [3]: potency similar to that shown in Vero E6 cells

SMILES: C[C@@H](OC(C)(C)C)[C@H](NC(=O)OCc1cccc(F)c1)C(=O)N[C@@H](CC1CCCCC1)C(=O)N[C@H](C=O)C[C@@H]1CCNC1=O [MPI102, 3-fluorobenzyl ((2S,3R)-3-(tert-butoxy)-1-(((S)-3-cyclohexyl-1-oxo-1-(((S)-1-oxo-3-((S)-2-oxopyrrolidin-3-yl)propan-2-yl)amino)propan-2-yl)amino)-1-oxobutan-2-yl)carbamate]
- IC50 [5]: 307 nM

SMILES: C[C@@H](OC(C)(C)C)[C@H](NC(=O)OCc1ccc(F)cc1)C(=O)N[C@@H](CC1CCCCC1)C(=O)N[C@H](C=O)C[C@@H]1CCNC1=O [MPI103, 4-fluorobenzyl ((2S,3R)-3-(tert-butoxy)-1-(((S)-3-cyclohexyl-1-oxo-1-(((S)-1-oxo-3-((S)-2-oxopyrrolidin-3-yl)propan-2-yl)amino)propan-2-yl)amino)-1-oxobutan-2-yl)carbamate]
- IC50 [5]: 196 ± 31 nM
